Measured values published in ChEMBL document CHEMBL1201862, “PubChem BioAssay data set” (2004).
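Results reflect a 48-hour exposure of cells in 96-well plates to compound at five concentrations. GI50 is the concentration that inhibits growth by half.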 Active and inactive are the calls of the source. Rule as the data show it: active = GI50 up to about 1.1 µM and inactive = higher.

Columns and labels:
Test in all cases: inhibition of tumour cell growth, NCI panel, 48 h
HOP-92 = tested on: HOP-92
KM12 = tested on: KM12
OVCAR-5 = tested on: OVCAR-5
UACC-257 = tested on: UACC-257
TK-10 = tested on: TK-10
786-0 = tested on: 786-0
OVCAR-3 = tested on: OVCAR-3
NCI-H226 = tested on: NCI-H226
NCI-H460 = tested on: NCI-H460
SK-MEL-2 = tested on: SK-MEL-2
A549 = tested on: A549
K562 = tested on: K562
CAKI-1 = tested on: CAKI-1
SK-MEL-28 = tested on: SK-MEL-28
Malme-3M = tested on: Malme-3M
OVCAR-8 = tested on: OVCAR-8
UO-31 = tested on: UO-31
NCI-H522 = tested on: NCI-H522
NCI-H23 = tested on: NCI-H23
MOLT-4 = tested on: MOLT-4

Structure (SMILES)	GI50 (HOP-92)	GI50 (KM12)	GI50 (OVCAR-5)	GI50 (UACC-257)	GI50 (TK-10)	GI50 (786-0)	GI50 (OVCAR-3)	GI50 (NCI-H226)	GI50 (NCI-H460)	GI50 (SK-MEL-2)	GI50 (A549)	GI50 (K562)	GI50 (CAKI-1)	GI50 (SK-MEL-28)	GI50 (Malme-3M)	GI50 (OVCAR-8)	GI50 (UO-31)	GI50 (NCI-H522)	GI50 (NCI-H23)	GI50 (MOLT-4)
Cc1oc2c(Cl)cc(O)c(Cl)c2c2cccc1-2	14.9 µM (inactive)	17.7 µM (inactive)	45.5 µM (inactive)	> 100 µM (inactive)	> 100 µM (inactive)	21.9 µM (inactive)	18.1 µM (inactive)	14.2 µM (inactive)	> 100 µM (inactive)	33.3 µM (inactive)	28.2 µM (inactive)	12.6 µM (inactive)	30.1 µM (inactive)	14.8 µM (inactive)	25.7 µM (inactive)	23.6 µM (inactive)	36.4 µM (inactive)	26.4 µM (inactive)	19.5 µM (inactive)	–
CCOC(=O)c1ccc(C(=O)OCC)n1-c1cc2cc(c1)CSCc1cc(cc(-n3c(C(=O)OCC)ccc3C(=O)OCC)c1)CSC2	> 10 µM (inactive)	> 10 µM (inactive)	> 10 µM (inactive)	> 10 µM (inactive)	> 10 µM (inactive)	> 10 µM (inactive)	> 10 µM (inactive)	> 10 µM (inactive)	> 10 µM (inactive)	> 10 µM (inactive)	> 10 µM (inactive)	> 10 µM (inactive)	> 10 µM (inactive)	> 10 µM (inactive)	> 10 µM (inactive)	> 10 µM (inactive)	> 10 µM (inactive)	> 10 µM (inactive)	> 10 µM (inactive)	> 10 µM (inactive)
COC(=O)C1=C(C)NC(C)=C([N+](=O)[O-])C1c1cccc(NO)c1 (stereo not drawn)	3.6 µM (inactive)	2.54 µM (inactive)	14.7 µM (inactive)	4.61 µM (inactive)	5.12 µM (inactive)	4.48 µM (inactive)	3.9 µM (inactive)	7.28 µM (inactive)	3.37 µM (inactive)	11.2 µM (inactive)	3.86 µM (inactive)	2.72 µM (inactive)	8.38 µM (inactive)	4.92 µM (inactive)	4.31 µM (inactive)	5.81 µM (inactive)	2.96 µM (inactive)	3.67 µM (inactive)	4.94 µM (inactive)	3.46 µM (inactive)
NC(=O)N/N=C(\CC1OC(=O)c2ccccc21)c1ccco1 (stereo not drawn)	> 100 µM (inactive)	> 100 µM (inactive)	> 100 µM (inactive)	> 100 µM (inactive)	> 100 µM (inactive)	92.9 µM (inactive)	> 100 µM (inactive)	> 100 µM (inactive)	> 100 µM (inactive)	> 100 µM (inactive)	> 100 µM (inactive)	> 100 µM (inactive)	> 100 µM (inactive)	> 100 µM (inactive)	> 100 µM (inactive)	–	> 100 µM (inactive)	> 100 µM (inactive)	> 100 µM (inactive)	> 100 µM (inactive)
O=C1C=CC(=O)c2c1cc1ccccc1c2O	1.8 µM (inactive)	13.2 µM (inactive)	18.4 µM (inactive)	3.18 µM (inactive)	4.24 µM (inactive)	7.67 µM (inactive)	2.12 µM (inactive)	20.1 µM (inactive)	19.1 µM (inactive)	14.4 µM (inactive)	16.7 µM (inactive)	0.767 µM (active)	4.21 µM (inactive)	9.25 µM (inactive)	6.18 µM (inactive)	2.58 µM (inactive)	3.15 µM (inactive)	1.9 µM (inactive)	13 µM (inactive)	0.387 µM (active)
